In assay [1] the target is human GABAA α5β2γ1 receptor (Homo sapiens (Human), UniProt P31644+Q8N1C3). The assay is described as follows: Radioligand binding assay, [3H]RO7239181 competition, γ1-containing GABAA subtypes. The conditions noted are these: HEK293F membranes, mean of two determinations. On the procedure:
The affinity of compounds at GABAA γ1 subunit-containing receptors was measured by competition for [^3H]RO7239181 (67.3 Ci/mmol; Roche) binding to membranes from HEK293F cells (ThermoFisher R79007) expressing human (transiently transfected) receptors of composition α5β2γ1, α2β2γ1, α1β2γ1. For better protein expression of the α2 subunit-containing receptors, the 28 amino acid long signal peptide (Met1 to Ala28) of the human GABAA α2 subunit was substituted by the 31 amino acid long signal peptide (Met1 to Ser31) of human GABAA α5 subunit.
Harvested pellets from HEK293F cells expressing the different GABAA receptor subtypes were resuspended in Mannitol Buffer pH 7.2-7.4 (Mannitol 0.29M, Triethylamine 10 mM, Acetic acid 10 mM, EDTA 1 mM plus protease inhibitors (20 tablets Complete, Roche Diagnostics Cat. No. 05 056 489 001 per liter)), washed two times and then resuspended at 1:10 to 1:15 dilution in the same buffer. Cell disruption was performed by stirring the suspension in a Parr vessel #4637 at 435 psi for 15 minutes, and then the suspensions were centrifuged at 1000×g for 15 minutes at 4° C. (Beckman Avanti J-HC; rotor JS)-4.2). The supernatant (S1) was transferred in a 21 Schott flask and the pellet (P1) was resuspended with Mannitol Buffer up to 175 ml. The resuspended pellet was transferred into a 250 ml Corning centrifugal beaker and centrifuged at 1500×g for 10 minutes at 4° C. (Beckman Avanti J-HC; rotor JS)-4.2). The supernatant (S1) was then transferred in the 21 Schott flask and the pellet was discarded. The supernatants (S1) were centrifuged in 500 ml Beckman polypropylene centrifugal beaker at 15,000×g for 30 minutes at 4° C. (Beckman Avanti J-20 XP; rotor JLA-10.500). The pellet (P2) was resuspended with Mannitol Buffer 1:1 and frozen at −80° C. The supernatant (S2) was centrifuged in 100 ml Beckman polypropylene centrifugal tubes at 48000×g for 50 minutes at […] (Beckman Avanti J-20 XP; rotor JA-18). The supernatant (S3) was discarded and the pellet (P3) was resuspended with 1:1 Mannitol Buffer. The P2 and P3 protein concentration was determined with the BIORAD Standard assay method with bovine serum albumin as standard and measured on the NANO-Drop 1000. The membrane suspension was aliquots (500 μl per tube) and stored at −80° C. until required.
Membrane homogenates were resuspended and polytronised (Polytron PT1200E Kinematica AG) in Potassium Phosphate 10 mM, KCl 100 mM binding buffer at pH 7.4 to a final assay concentration determined with a previous experiment.
Radioligand binding assays were carried out in a volume of 200 µL (96-well plates) which contained 100 μL of cell membranes, [^3H]RO7239181 at a concentration of 1.5 nM (α5β2γ1) or 20-30 nM (α1β2γ1, 2β2γ1) and the test compound in the range of [0.3-10000]×10^−9 M. Nonspecific binding was defined by 10×10^−6 (α5β2γ1) and 30×10^−6 M RO7235136 and typically represented less than 5% (α5β2γ1) and less than 20% (α1β2γ1, α2β2γ1) of the total binding. Assays were incubated to equilibrium for 1 hour at 4° C. and then, membranes were filtered onto unifilter (96-well white microplate with bonded GF/C filters preincubated 20-50 minutes in 0.3% Polyethylenimine) with a Filtermate 196 harvester (Packard BioScience) and washed 4 times with cold Potassium Phosphate 10 mM pH 7.4, KCl 100 mM binding buffer. After drying, filter-retained radioactivity was detected by liquid scintillation counting. K, values were calculated using Excel-Fit (Microsoft) and are the means of two determinations.
Representative test results, obtained by the above described assay measuring binding affinity to HEK293 cells expressing human (h) receptors, are shown in the Table 1.

The target in assay [2] is human GABAA α1β3γ2 receptor (Homo sapiens (Human), UniProt P14867+P18507). The assay is described as follows: Radioligand binding assay, [3H]Flumazenil competition, γ2-containing GABAA subtypes. The note with it: HEK293F membranes, [3H]Flumazenil 1 nM, mean of two determinations; read-out: Ki h-GABAA α1β3γ2. Put shortly:
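Competition with [3H]Flumazenil (81.1 Ci/mmol) for binding to HEK293F cells transiently expressing human α1β3γ2 receptors, prepared in Mannitol Buffer pH 7.2-7.4. Incubated 1 hour at 4° C to equilibrium, filtered, washed with ice-cold 50 mM Tris pH 7.5, counted by liquid scintillation. Ki values are means of two determinations.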

`Cc1cc(-c2nnc3n2-c2ccc(Cl)c(Cl)c2C(c2c(F)cccc2F)=N[C@H]3C)nc(C)n1` [Example 96, (4S)-7,8-dichloro-6-(2,6-difluorophenyl)-1-(2,6-dimethylpyrimidin-4-yl)-4-methyl-4H-[1,2,4]triazolo[4,3-a][1,4]benzodiazepine]: the results for the Ki in assay [1] and in assay [2] were 3 nM and 473 nM, respectively.
Turning to `Cc1ccc2c(c1Cl)C(c1c(F)cccc1F)=N[C@@H](C)c1nnc(C)n1-2` [Example 97, (4S)-7-chloro-6-(2,6-difluorophenyl)-1,4,8-trimethyl-4H-[1,2,4]triazolo[4,3-a][1,4]benzodiazepine], the Ki (in general, a dissociation constant, usually derived from enzyme kinetics or from competition with a known ligand) in assay [1] is 2.5 nM; in assay [2], 425 nM.
Take `CC[C@@H]1N=C(c2c(F)cccc2F)c2c(ccc(Br)c2Cl)-n2c(C)nnc21` [Example 98, (4S)-8-bromo-7-chloro-6-(2,6-difluorophenyl)-4-ethyl-1-methyl-4H-[1,2,4]triazolo[4,3-a][1,4]benzodiazepine]: the Ki was determined as 4.4 nM in assay [1] and 1460 nM in assay [2].
For the compound `Cc1nnc2n1-c1ccc(C(F)F)c(Cl)c1C(c1c(F)cccc1F)=N[C@H]2C` [Example 99, (4S)-7-chloro-8-(difluoromethyl)-6-(2,6-difluorophenyl)-1,4-dimethyl-4H-[1,2,4]triazolo[4,3-a][1,4]benzodiazepine], the values for the Ki in assay [1] and in assay [2] were 3.2 nM and 2020 nM, respectively.
`COC[C@@H]1N=C(c2c(F)cccc2F)c2c(ccc(Br)c2Cl)-n2c(C)nnc21` [Example 100, (4R)-8-bromo-7-chloro-6-(2,6-difluorophenyl)-4-(methoxymethyl)-1-methyl-4H-[1,2,4]triazolo[4,3-a][1,4]benzodiazepine]: the inhibition constant Ki amounted to 3.4 nM in assay [1] and 288 nM in assay [2].
In the same order, the values of `Cc1nnc2n1-c1ccc(Br)c(Cl)c1C(c1c(F)cccc1F)=N[C@H]2CO` [Example 101, [(4R)-8-bromo-7-chloro-6-(2,6-difluorophenyl)-1-methyl-4H-[1,2,4]triazolo[4,3-a][1,4]benzodiazepin-4-yl]methanol] are 1 nM and 495 nM.
In the same order, the values of `Cc1nnc2n1-c1ccc(I)c(Cl)c1C(c1c(F)cccc1F)=N[C@H]2C` [Example 102, (4S)-7-chloro-6-(2,6-difluorophenyl)-8-iodo-1,4-dimethyl-4H-[1,2,4]triazolo[4,3-a][1,4]benzodiazepine] are 0.8 nM and 278 nM.
On the same counts, the results for `C[C@@H]1N=C(c2c(F)cccc2F)c2c(ccc(C(F)(F)F)c2Cl)-n2c(CO)nnc21` [Example 103, [(4S)-7-chloro-6-(2,6-difluorophenyl)-4-methyl-8-(trifluoromethyl)-4H-[1,2,4]triazolo[4,3-a][1,4]benzodiazepin-1-yl]methanol] are 5.4 nM and 3380 nM.
Turning to `COC[C@@H]1N=C(c2c(F)cccc2F)c2c(ccc(C(F)(F)F)c2Cl)-n2c(C)nnc21` [Example 105, (4R)-7-chloro-6-(2,6-difluorophenyl)-4-(methoxymethyl)-1-methyl-8-(trifluoromethyl)-4H-[1,2,4]triazolo[4,3-a][1,4]benzodiazepine], the Ki in assay [1] stood at 20.1 nM; in assay [2] it was 7340 nM.
For the compound `Cc1nnc2n1-c1ccc(C(F)(F)F)c(Cl)c1C(c1c(F)cccc1F)=N[C@H]2CO` [Example 106, [(4R)-7-chloro-6-(2,6-difluorophenyl)-1-methyl-8-(trifluoromethyl)-4H-[1,2,4]triazlo[4,3-a][1,4]benzodiazepin-4-yl]methanol], the inhibition constant (Ki) in assay [1] is 4.3 nM; in assay [2], 7640 nM.
Consider `C[C@@H]1N=C(c2c(F)cccc2F)c2c(ccc(C(F)(F)F)c2Cl)-n2cnnc21` [Example 107, (4S)-7-chloro-6-(2,6-difluorophenyl)-4-methyl-8-(trifluoromethyl)-4H-[1,2,4]triazolo[4,3-a][1,4]benzodiazepine], for which the Ki in assay [1] worked out at 3 nM; in assay [2], 3530 nM.
In the same order, the values of `CCc1ccc2c(c1Cl)C(c1c(F)cccc1F)=N[C@@H](C)c1nnc(C)n1-2` [Example 109, (4S)-7-chloro-6-(2,6-difluorophenyl)-8-ethyl-1,4-dimethyl-4H-[1,2,4]triazolo[4,3-a][1,4]benzodiazepine] are 3.7 nM and 754 nM.
